Experimental data reported in US20210393662A1, “USE OF SGLT2 INHIBITORS TO TREAT PRIMARY SCLEROSING CHOLANGITIS” (AVOLYNT, priority 2018, published 2021).
“Also recorded” adds a separate entry of the source.

Key:
[1] = Plasma pharmacokinetics after oral compressed IR tablet; type: in vivo
From the text: Oral dosage forms according to the invention are typically tablets or capsules. Tablets can be obtained by direct compression of the mixed components of a dosage form, including an effective dosage amount of remogliflozin etabonate, and selected excipients, like cellulose derivatives, metacrylates, chitosan, carboxymethylstarch, or mixtures thereof. For example, a compressed tablet according to the invention, can be prepared by granulating a SGLT2 inhibitor with microcrystalline cellulose and croscarmellose sodium with a water and povidone solution. The resulting granules are dried, milled, and then blended with mannitol, microcrystalline cellulose, and croscarmellose. The blend is lubricated with magnesium stearate and compressed. […] Indeed, Tmax for an IR remogliflozin etabonate oral dosage form according to the invention occurs at 1 hour, or less, following ingestion of the dosage form by a subject.

TIA mice = assay: TIA murine model of PSC, liver histology and survival after 7 weeks on 0.03% remogliflozin etabonate diet; type: in vivo, mouse; conditions: for periportal and biliary inflammation / proliferation of bile ductules: 0.03% in chow from 4 weeks of age
From the text: The following Examples describe the utilization of a murine model of […] (“PSC”) to assess the effectiveness of a treatment regimen based on the oral administration of remogliflozin etabonate. The murine PSC model is based on mice that are deficient for the expression of tumor necrosis factor alpha (“TNFα”), interleukin 10 (“IL-10”), and activation-induced cytidine deaminase (“AICDA”). As the mice are deficient in TNF, IL-10, and AICDA, they are referred to, herein, as “TIA” mice.
Moreover, as AICDA is required for immunoglobulin (“Ig”) class switching, TIA mice lack IgG and IgA, a phenotype analogous to humans with hyper-IgM syndrome. Therefore, with the combination of AICDA deficiency with the risk factors associated with TNFα and IL-10 deficiencies, TIA mice also develop liver and biliary inflammation reminiscent of PSC symptoms in humans. Accordingly, the TIA model is useful for investigating mechanisms that act early in PSC pathogenesis, as well as treatments that can prevent progression to PSC.
Example 1. Orally-administered remogliflozin etabonate reduces inflammatory cell infiltration, bile ductular proliferation, and interface hepatitis in TIA mice. TIA mice were created by first breeding TNFα knock out (“KO”) C57BL/6 mice, (strain B6.129S-Tnf^tm1Gkl/J, stock #005540, Jackson Laboratories, Bar Harbor, Me.) with IL-10 KO mice (strain B10.129P2(B6)-IL10^tm1Cgn/J, Stock No. 002251, Jackson Laboratories) to produce a population of mice that were deficient in TNFα and IL-10. Because mice with a TNFα−/− and IL10−/− genotype spontaneously develop inflammatory bowel disease (“IBD”) (Hale 2012), a condition associated with poor breeding success (Nagy 2016), the mice needed for further breeding to generate an AICDA population, were generated by breeding offspring with a TNFα−/− and IL10+/− genotype with AICDA−/− mice, which were obtained from Dr. Tasuku Honjo (Muramatsu 2000)), to produce a population of TNFα−/−, IL10−/−, and AICDA+/−(“TI-hetA”) males and females. In turn, TI-hetA pairs were bred to generate populations that were 25% TIA mice, and 50% non-colitis-susceptible TI-hetA littermates that could be used as control populations. All populations were exposed to the same environment from birth. The mice were housed in polycarbonate micro-isolator cages, in individually ventilated racks, under barrier conditions that excluded all known pathogens, including Helicobacter pylori and Norovirus. Mice had ad libitum access to water, and to a standard diet (PicoLab Mouse Diet 20/5058, LabDiet, St. Louis, Mo., USA).
At four (4) weeks of age, TIA (40) and TI-hetA (22) mice were randomized into experimental groups that received either a standard diet (20 TIA and 12 het), or a standard diet formulated 0.03% remogliflozin etabonate (20 TIA and 10 het) (Avolynt Inc., USA). The mice were maintained on this diet for seven (7) weeks. Body weights were obtained three (3) times, weekly, to assess the general health of mice, and to track the development of inflammatory bowel disease (IBD). Glycosuria in the experimental groups was assessed by applying freshly voided urine directly to the glucose test patch on an Accutest® URS-10 urinary reagent test strips (Jant Pharmaceutical Corp., Encino, Calif., USA). Mice were humanely euthanized before reaching the experimental endpoint, of eleven (11) weeks of age, if they lost>15% body weight, or developed rectal prolapse.
To characterize biliary lesions in TIA mice at the end of the 7 week treatment period, liver tissue was obtained from the remogliflozin-treated, and untreated groups, for histologic examination. The excised liver tissue was fixed in Carnoy's fixative solution, and processed into paraffin blocks. The paraffin blocks were sectioned, and stained with Hematoxylin and eosin (H&E) for pathologic analysis. The H&E-stained sections were scored by an American Board of Pathology-certified pathologist. […]

[2] = TIA mice, H&E liver sections at 11 weeks, vs untreated
[3] = TIA mice, H&E liver sections at 11 weeks, vs untreated, listed as Remo

CCOC(=O)OC[C@H]1O[C@@H](Oc2nn(C(C)C)c(C)c2Cc2ccc(OC(C)C)cc2)[C@H](O)[C@@H](O)[C@@H]1O [remogliflozin etabonate]
Tmax ([1]; IR remogliflozin etabonate oral dosage form, following ingestion): ≤ 1 h | remogliflozin plasma concentration (plasma clearance to) ([1]; compressed IR tablet, 350 mg remogliflozin etabonate, oral, after 3 hrs): 40 ng/mL | maximum remogliflozin plasma concentration (Cmax) ([1]; compressed IR tablet, 350 mg remogliflozin etabonate, oral, at 1 hr post-ingestion): 160 ng/mL | number of TIA mice that required early euthanasia (TIA mice; Remo group versus control group): no statistical difference | early death (TIA mice; Remo group versus control group, not statistically significant): trend toward decreased early death | periportal and biliary inflammation (TIA mice; [2]): less inflammation | proliferation of bile ductules (TIA mice; [2]): reduces; also recorded: less proliferation | periportal and biliary inflammation (TIA mice; [3]): decrease | proliferation of bile ductules (TIA mice; [3]): decrease | inflammation at the interface between hepatic parenchyma and portal tracts (interface hepatitis) (TIA mice; TIA mice, 0.03% in diet for 7 weeks, H&E liver sections at 11 weeks, vs untreated): reduces; also recorded: less inflammation | development and progression of liver and biliary disease (PSC disease pathology) (TIA mice; TIA mice, 0.03% in diet for 7 weeks, vs standard diet): markedly less development and progression; also recorded: prevents the progression | inflammatory cell infiltration (TIA mice; TIA mice, orally administered): reduces
